Patent EP0943606A1, “BENZENESULFONAMIDE DERIVATIVES AND DRUGS CONTAINING THE SAME” (HOKURIKU SEIYAKU CO., LTD., priority 1996, dated 1998)

What was measured:
leukotriene D4 = target: T1, leukotriene D4 (Cavia porcellus, UniProt Q2NNR5); assay: Leukotriene D4 antagonistic effect (isolated trachea, leukotriene D4 concentration-response curves, Schild); set-up: species or system male Hartley guinea-pigs; settings: isolated guinea-pig trachea, contraction by leukotriene D4, test compound treatment 30 minutes, indomethacin 1 × 10^-6M, method of Schild
T1 construct: tracheas were isolated from male Hartley guinea-pigs, and spiral specimens of approximately 2 cm length were prepared; from tissue; host or cells: isolated guinea-pig trachea (spiral strips)
T1 sequence (Q2NNR5 1-340): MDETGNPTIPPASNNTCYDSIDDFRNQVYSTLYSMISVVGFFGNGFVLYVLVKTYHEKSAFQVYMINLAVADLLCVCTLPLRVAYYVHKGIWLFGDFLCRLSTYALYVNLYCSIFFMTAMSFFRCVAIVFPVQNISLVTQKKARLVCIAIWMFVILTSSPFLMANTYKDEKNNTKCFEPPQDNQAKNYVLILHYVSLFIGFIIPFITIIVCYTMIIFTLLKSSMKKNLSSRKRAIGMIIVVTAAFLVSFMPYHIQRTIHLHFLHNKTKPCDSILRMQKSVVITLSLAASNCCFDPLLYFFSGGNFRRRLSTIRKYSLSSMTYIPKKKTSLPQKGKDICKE
Procedure: According to an ordinary method, tracheas were isolated from male Hartley guinea-pigs, and spiral specimens of approximately 2 cm length were prepared. These specimens were suspended isotonically in organ baths that contained Krebs-Henseleit solution at 37°C under a resting tension of 0.5g. After contractions with acetylcholine (1 × 10^-5M; Ovisot for injection, Daiichi Seiyaku), and the first concentration-response curves were obtained by cumulative applications of 10^-10 to 10^-8M of leukotriene D4 (ULTRA FINE) in the organ baths. After treatments with test compounds at adequate concentrations for 30 minutes, the second concentration-response curves were obtained in the same manner as the first applications. pKB values were calculated using these two concentration-response curves according to the method of Schild [Pharmacological Review, Vol. 9, 242 (1957)]. Indomethacin (1 × 10^-6M, Sigma) was added beforehand to the organ bath to eliminate possible affections by thromboxane A2 and prostaglandin produced by stimulus of leukotriene D4 [Japan J. Pharmacol., Vol. 60, 227 (1992)]. […]

human liver microsomes = assay: In vitro metabolism test; format: in vitro ADME; settings: 0.4mg protein/ml human liver microsomes, 0.02 mM test compound, NADPH-generating system, 37°C for 30 minutes, HPLC
Procedure: 0.05 mM EDTA-0.1M phosphate buffer (pH 7.4), distilled water, 0.4mg protein/ml human liver microsomes and 0.02 mM test compound were mixed in a test tube under ice-cooling. After the mixture was shaken at 37°C for 2 minutes beforehand, the mixture was added with a ready-mix of NADPH-generating system and then shaken at 37°C for 30 minutes. After the incubation, the reaction was stopped by cooling with ice. The mixture was added with acetonitrile and well mixted, and then centrifuged at 3000 rpm for 10 minutes. The resulting supernatant was subjected to HPLC measurement, and the residual rate of test compound was calculated from the ratio of a peak area of an unchanged compound in the reaction sample in comparison with a non-reaction mixture. Preparations of reagents and reaction mixtures were carried out by referring to Shin Seikagaku Koza, Vol. 5: Biological oxidation and drug metabolism edited by The Japanese Biochemical Society. […]

[1] = system: bronchoconstriction induced by leukotriene D4; assay: Inhibitory effect on bronchoconstriction induced by leukotriene D4 (Konzett-Roessler); format: in vivo, Male Hartley guinea-pigs; settings: Cavia porcellus; oral administration 2 hours before leukotriene D4 (1 µg/kg, cervical vein), anesthetized guinea-pigs, indomethacin and propranolol pretreated
Procedure: Airway resistance was evaluated according to the method of Konzett-Roessler [Naunyn-Schmiedberg's Arch. Exp. Path. Pharmak., Vol. 195, 71 (1940)]. Male Hartley guinea-pigs fasted beforehand for 24 hours were anesthetized with urethane, and then overflowed air volume was measured under artificial ventilation as an index of bronchoconstriction. Various doses of test compounds suspended in 5% gum Arabic were administered orally, and after 2 hours, leukotriene D4 (1 µg/kg; ULTRA FINE) was administered through the cervical vein. Then, values at 2 minutes were measured when maximum responses were obtained. Inhibitory rates compared to the control group were calculated based on the response rate normalized by the overflowed volume at complete closure as 100% bronchoconstriction rate, and the 50% inhibitory doses (ED50 values) were calculated using dose-inhibitory rate curves. Indomethacin (2mg/kg, i.v.) and propranolol (1mg/kg, i.v.) were administered at 10 minutes and 5 minutes before the administration of leukotriene D4, respectively. […]

[2] = system: bronchoconstriction induced by U-46619; assay: Inhibitory effect on bronchoconstriction induced by U-46619 (Konzett-Roessler); format: in vivo, Male Hartley guinea-pigs; settings: Cavia porcellus; 0.3 mg/kg orally, 2 hours before U-46619 (4 µg/kg, cervical vein), anesthetized guinea-pigs, compared to control group; read-out: Inhibition rate (%)
Procedure: Airway resistance was evaluated according to the method of Konzett-Roessler [Naunyn-Schmiedberg's Arch. Exp. Path. Pharmak., Vol. 195, 71 (1940)]. Male Hartley guinea-pigs (about 400g wt.) were anesthetized with urethane (1.5g/kg, i.p.) and ventilated by an artificial respirator (Model 683; Harvard). At the same time, overflowed air volume above the pressure of about 12cm H2O was measured by using a sensor (Model 7020; Ugo Basile) and the value was used as an index of bronchoconstriction. 0.3 mg/kg (5 ml/kg) of test compounds suspended in 5% gum Arabic was administered orally to the guinea-pigs fasted beforehand for 24 hours. After 2 hours, U-46619 (4 µg/kg; Cayman) was administered through the cervical vein, and then maximal response was measured. Inhibitory rates compared to the control group were calculated based on the response rate normalized by the complete closure as 100%. […]

[3] = target: T2, thromboxane A2 / prostaglandin H2 receptor (Cavia porcellus, UniProt A0A286Y4I8); assay: Thromboxane A2 antagonistic effect (isolated trachea, U-46619 concentration-response curves, Schild); set-up: species or system male Hartley guinea-pigs; settings: isolated guinea-pig trachea, contraction by U-46619, test compound treatment 5 minutes, indomethacin 3 × 10^-6M, method of Schild
T2 construct: tracheas were isolated from male Hartley guinea-pigs, and spiral specimens of approximately 2 cm length were prepared; from tissue; host or cells: isolated guinea-pig trachea (spiral strips)
T2 sequence (A0A286Y4I8 1-347): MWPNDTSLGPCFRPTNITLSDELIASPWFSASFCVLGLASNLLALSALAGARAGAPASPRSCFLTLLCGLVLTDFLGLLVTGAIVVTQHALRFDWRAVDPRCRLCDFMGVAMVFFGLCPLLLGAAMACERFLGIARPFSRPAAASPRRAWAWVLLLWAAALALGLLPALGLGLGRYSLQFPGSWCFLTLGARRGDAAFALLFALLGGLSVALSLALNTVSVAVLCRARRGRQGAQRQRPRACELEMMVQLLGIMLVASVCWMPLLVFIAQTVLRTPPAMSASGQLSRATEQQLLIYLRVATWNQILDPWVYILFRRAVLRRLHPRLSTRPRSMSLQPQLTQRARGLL
Procedure: According to an ordinary method, tracheas were isolated from male Hartley guinea-pigs, and spiral specimens of approximately 2 cm length were prepared. These specimens were suspended in organ baths that contained Krebs-Henseleit solution at 37°C under a resting tension of 1.5 g, and the changes in isometric tension were recorded. The first concentration-response curves were obtained by cumulative applications of 1 × 10^-9 to 3 × 10^-7M of U-46619 (Cayman, thromboxane A2 / prostaglandin H2 receptor agonist) in the organ baths. After treatments with test compounds at adequate concentrations for 5 minutes, the second concentration-response curves were obtained in the same manner as the first applications. pKB values were calculated using these two concentration-response curves according to the method of Schild [Pharmacological Review, Vol. 9, 242 (1957)]. Indomethacin (3 × 10^-6M, Sigma) was added beforehand to the organ bath to eliminate possible affections by thromboxane A2 and prostaglandin produced endogenously [Japan J. Pharmacol., Vol. 60, 227 (1992)].

Kb (leukotriene D4): 0.2 µM | Residual rate (%) (human liver microsomes): 53% | Kb [3]: 0.001 µM
SMILES: CCCCCC(NS(=O)(=O)c1ccc(Cl)cc1)c1ccc(CCCC(=O)O)cc1 (centres unmarked) [Reference compound 1, 4-[4-[1-(4-Chlorophenylsulfonylamino)hexyl]phenyl]butyric acid, reference compound]
ED50 [1]: 8.1 mg/kg | inhibition in vivo at 0.3 mg/kg [2]: 85%
